# Results from US20160193278A1, “METHODS AND COMPOSITIONS FOR PREVENTING OR TREATING LEBER'S HEREDITARY OPTIC NEUROPATHY” (STEALTH BIOTHERAPEUTICS CORP, priority 2013, published 2016).
# Where no end group is shown, it is not given here. [ ]: non-standard residue; d: D form.
# How the values were obtained:
# [1] = tested on: excessive production of reactive oxygen species; conditions: cited from earlier work
# mu-opioid receptor = mu-opioid receptor (Homo sapiens, UniProt P35372); conditions: cited from earlier work
# Sequence of mu-opioid receptor (P35372 whole entry, species assumed): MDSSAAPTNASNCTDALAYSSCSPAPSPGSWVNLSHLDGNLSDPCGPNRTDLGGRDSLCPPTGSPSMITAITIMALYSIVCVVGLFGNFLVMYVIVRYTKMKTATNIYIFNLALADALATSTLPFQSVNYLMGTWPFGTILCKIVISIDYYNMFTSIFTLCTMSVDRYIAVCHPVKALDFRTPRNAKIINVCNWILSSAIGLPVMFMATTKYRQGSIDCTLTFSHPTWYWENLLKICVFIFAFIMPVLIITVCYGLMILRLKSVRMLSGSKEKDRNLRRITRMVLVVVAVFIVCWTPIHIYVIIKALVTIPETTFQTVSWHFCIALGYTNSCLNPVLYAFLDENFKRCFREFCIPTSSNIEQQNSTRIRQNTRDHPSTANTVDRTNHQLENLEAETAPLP
# [2] = tested on: brain mitochondrial H2O2 production; test: Brain mitochondrial / synaptosome H2O2 production with rotenone; format: biochemical, mouse; conditions: for decrease of the rate of generation of H2O2 during RET conditions: succinate plus oligomycin
# [3] = tested on: several mammalian cell types; conditions: cited from earlier work
# [4] = tested on: caspase activation and apoptosis; conditions: known in the art; cited from earlier work
# [5] = tested on: LHON cybrid cells (11778/ND4, 3460/ND1, 14484/ND6); test: ATP synthesis rate in LHON cybrids (Example 4); format: cell-based, human; conditions: 1-10 μg, compared to untreated LHON cybrid cells
# Excerpt: (§1) Cybrid cell lines are constructed using enucleated fibroblasts from a control individual (i.e., negative for LHON) and 3 unrelated probands with LHON as mitochondria donors. One control cybrid cell line and three LHON cybrid cell lines, one for each of the most common pathogenic mutations found in LHON, i.e., mutations at positions 11778/ND4, 3460/ND1, and 14484/ND6 of mtDNA, are produced.
# (§2) The mitochondrial donor cytoplast is fused with the osteosarcoma (143B.TK-)-derived 206 cell line (rho^0 206 cell line). All fibroblast cell lines are established from skin biopsy samples or from umbilical cord specimens after having obtained the informed consent of LHON and control patients. […]
# (§3) 1 ml of each cybrid cell line at 5×10^6 cells/ml is individually plated in tissue culture plates with growth media. […] After incubation for 1 hour at 37° C., the ATP synthesis rate and cellular respiration are measured.
# The ATP synthesis rate is assayed by permeabilizing the cells with digitonin according to the method described by Ouhabi et al., Anal Biochem., 263: 169-175 (1998). […] The ATP content is measured using the luciferin-luciferase chemiluminescent method, e.g., described in Stanley et al., Anal Biochem., 29: 381-392 (1969).
# [6] = tested on: human subjects at risk of having, suspected of having, or diagnosed as having LHON; test: Prevention and treatment of LHON in human subjects (Example 3); format: in vivo
# Experimental: Human subjects at risk of having, suspected of having, or diagnosed as having LHON are administered a therapeutically effective amount of an aromatic-cationic peptide of the present technology, such as D-Arg-2′,6′-Dmt-Lys-Phe-NH2, alone or in conjunction with one or more additional therapeutic agents, on a therapeutic schedule appropriate for the prophylactic/therapeutic needs of the individual.
# LHON patients are administered 1-10 μg D-Arg-2′,6′-Dmt-Lys-Phe-NH2 or saline vehicle subcutaneously once daily for 12 months. In another treatment group, LHON patients receive 1 drop of 1%, 3%, or 5% D-Arg-2′,6′-Dmt-Lys-Phe-NH2 ophthalmic solution or saline vehicle in both eyes three times per day for 12 months. Subjects are assessed periodically for signs and symptoms associated with LHON according to one or more criteria described herein.
# [7] = tested on: murine model of LHON (ND6 P25L mutation); test: Prevention of LHON in ND6 P25L mouse model (Example 1); format: in vivo; conditions: ND6 P25L mice
# [8] = tested on: LHON cybrid cells (11778/ND4, 3460/ND1, 14484/ND6); test: Respiratory rate of digitonin-permeabilized LHON cybrids (Example 4); format: cell-based, human; conditions: 1-10 μg, compared to untreated LHON cybrid cells
# Excerpt: as §1
# as §2, with “patients. Cell fusions of fibroblast-derived cytoplasts (enucleated fibroblasts) with the rho^0 206 cells are performed using the protocol, e.g., described in King et al., Science, 246: 500-03 (1989).” for “patients.”
# as §3
# Respiratory rates of digitonin-permeabilized cell samples are measured at 30° C. using a Clark-type oxygen electrode as previously described by Aicardi et al., Biochem Pharmacol., 31:3703-3705 (1982). The respiratory control ratio (RCR) is evaluated using glutamate-malate as a substrate.
# [9] = tested on: reactive oxygen species (ROS) production; conditions: known in the art; demonstrated in U.S. Pat. Nos. 7,550,439 and 7,576,061; cited from earlier work
# [10] = tested on: murine model of LHON (ND6 P25L mutation); test: Treatment of LHON in ND6 P25L mouse model (Example 2); format: in vivo; conditions: ND6 P25L mice
# LHON patients [11] = conditions: cited from earlier work
# LHON patients [12] = conditions: 900 mg/d for 24 weeks, vs placebo; preliminary press release; cited from earlier work
# quails = conditions: group with high zeaxanthin concentrations; cited from earlier work
# [13] = once daily from 0-14 months of age
# [14] = once daily from 14-24 months of age
compound,measurement,setting,value
Cc1c(C)c2c(c(C)c1O)CCC(C)(C(=O)O)O2 (stereo not drawn) [Trolox],protective effects in vitro,[1],modest protective effects
Tyr-D-Arg-Phe-Lys-NH2,mu-opioid receptor agonist activity,mu-opioid receptor,has mu-opioid receptor agonist activity
C=C(C)[C@H]1Cc2c(ccc3c2O[C@@H]2COc4cc(OC)c(OC)cc4[C@@H]2C3=O)O1 [rotenone],decrease of the rate of generation of H2O2 during RET conditions,[2]; ND6 P25L mice,approximately 59%
same,increase of the rate of H2O2 production during forward electron transfer,[2]; ND6 P25L synaptosomes,~2.7 fold
same,decrease of the rate of generation of H2O2 during RET conditions,[2]; wild-type animals,approximately 79%
same,increase of the rate of H2O2 production during forward electron transfer,[2]; wild-type synaptosomes,~2.3 fold
"2′,6′-Dmt-D-Arg-Phe-Lys-NH2",penetration of the plasma membrane,[3],readily penetrates the plasma membrane of several mammalian cell types in an energy-independent manner
F[dR]FK-NH2,mu-opioid receptor agonist activity,mu-opioid receptor,does not have mu-opioid receptor agonist activity
"D-Arg-2′,6′-Dmt-Lys-Phe-NH2",caspase activation and apoptosis,[4],capacity to inhibit caspase activation and apoptosis
same,ATP synthesis rate,[5],greater ATP synthesis rate
same,symptoms of LHON,"[6]; human subjects at risk of, suspected of or diagnosed as having LHON","prevent the onset of, delay the onset of, or reduce the severity of the symptoms of LHON"
same,effect of combination compared to any individual therapeutic agent alone,"[6]; in combination with one or more additional therapeutic agents, human subjects",synergistic effects
same,RGC axonal swelling and preferential loss of smallest fibers,[7]; [13],"prevent the onset of, delay the onset of, or reduce the severity of these effects"
same,abnormal mitochondrial morphology and proliferation in RGC axons,[7]; [13],"prevent the onset of, delay the onset of, or reduce the severity of these effects"
same,altered liver mitochondria complex I activity,[7]; [13],"prevent the onset of, delay the onset of, or reduce the severity of these effects"
same,effects of the ND6 P25L mutation; LHON and its symptoms,[7]; [13],"prevent the onset of, delay the onset of, and/or reduce the severity (e.g., ameliorate) of the effects of the ND6 P25L mutation"
same,forward / reverse electron flow ROS production in liver mitochondria,[7]; [13],"prevent the onset of, delay the onset of, or reduce the severity of these effects"
same,reduced complex I activity and altered ROS production in synaptosomes,[7]; [13],"prevent the onset of, delay the onset of, or reduce the severity of these effects"
same,reduced retinal response (electroretinogram deficits),[7]; [13],"prevent the onset of, delay the onset of, or reduce the severity of (e.g. ameliorate) these effects"
same,effect of combination compared to any individual therapeutic agent alone,"[7]; in combination with one or more additional therapeutic agents, prevention",synergistic effects
same,respiratory rate,[8],higher respiratory rate
same,anti-oxidant properties,[9],possess anti-oxidant properties
same,RGC axonal swelling and preferential loss of smallest fibers,[10]; [14],reduce or eliminate the effects of the ND6 P25L mutation
same,abnormal mitochondrial morphology and proliferation in RGC axons,[10]; [14],reduce or eliminate the effects of the ND6 P25L mutation
same,altered liver mitochondria complex I activity,[10]; [14],reduce or eliminate the effects of the ND6 P25L mutation
same,forward / reverse electron flow ROS production in liver mitochondria,[10]; [14],reduce or eliminate the effects of the ND6 P25L mutation
same,reduced complex I activity and altered ROS production in synaptosomes,[10]; [14],reduce or eliminate these effects of the ND6 P25L mutation
same,reduced retinal response (electroretinogram deficits),[10]; [14],reduce or eliminate the effects of the ND6 P25L mutation
same,effect of combination compared to any individual therapeutic agent alone,"[10]; in combination with one or more additional therapeutic agents, treatment",synergistic effects
same,mu-opioid receptor agonist activity,mu-opioid receptor,does not have mu-opioid receptor agonist activity
COC1=C(OC)C(=O)C(CCCCCCCCCCO)=C(C)C1=O [idebenone],diameter of the central scotomas after treatment,"LHON patients [11]; one 11778/ND4 LHON patient, from about 20 degrees",less than 5 degrees
same,recovery of visual function,"LHON patients [11]; seven LHON patients, about 450 mg/d","recovery of visual acuity, color vision, and visual fields"
same,final visual acuity,LHON patients [12],better final visual acuity than the placebo group
N[C@@H](CCC(=O)N[C@@H](CS)C(=O)NCC(=O)O)C(=O)O [glutathione],protective effects in vitro,[1],modest protective effects
COC1=C(OC)C(=O)C(C/C=C(\C)CC/C=C(\C)CC/C=C(\C)CC/C=C(\C)CC/C=C(\C)CC/C=C(\C)CC/C=C(\C)CC/C=C(\C)CC/C=C(\C)CCC=C(C)C)=C(C)C1=O [coenzyme Q-10],protective effects in vitro,[1],modest protective effects
CC1=C(/C=C/C(C)=C/C=C/C(C)=C/C=C/C=C(C)/C=C/C=C(C)/C=C/C2=C(C)C[C@@H](O)CC2(C)C)C(C)(C)C[C@H](O)C1 [zeaxanthin],light damage of the retina (apoptotic photoreceptor cells),quails,minimal damage
